The values that follow come from article PMC9866940 (Viruses, 2022).

For data set [1], the system named is LASV MG. As to the kind of experiment: microbe, parasite or virus in culture. Conditions: for inhibition of LASV MG activity (rescreening): 5 µM; for inhibition at 5 µM: Huh-7, read-out: inhibition of LASV MG activity (rescreening). Type of data set: cell-based, Lassa virus (LASV).
The subject of data set [2] is JUNV MG. As to the kind of experiment: microbe, parasite or virus in culture. Type of data set: cell-based, Junin virus (JUNV).
The subject of data set [3] is JUNV (Candid #1 strain). As to the kind of experiment: microbe, parasite or virus in culture. Format: cell-based, Junin virus (JUNV).
The test system of data set [4] is Huh-7 cells. Particulars: 5 µM.
In data set [5] the test system is A549 cells.
In data set [6] the test system is LCMV (rLCMV.Arm). As to the kind of experiment: microbe, parasite or virus in culture. Type of data set: cell-based, lymphocytic choriomeningitis virus (LCMV).
Data set [7] can be described thus: in vitro. Particulars: human.
Data set [8] deals with LCMV MG. Type of data set: cell-based, lymphocytic choriomeningitis virus (LCMV). Particulars: 5 µM.
Data set [9] deals with A549 cells. This is another data set of the same source.
Data set [10] can be described thus: in vitro. Conditions: human. The source holds these as a separate data set.
A short description of data set [11]: in vitro. Conditions: human. The source holds these as a separate data set.
A short description of data set [12]: in vitro. Particulars: human. This is another data set of the same source.
[13] abbreviates: Mammarenavirus lassaense, Huh-7.
[14] abbreviates: Mammarenavirus juninense, Huh-7.
Setting [15] is: Mammarenavirus juninense, A549, 48 h.
Setting [16] is: Mammarenavirus choriomeningitidis, A549, 24 h.

Molecules are shown by their SMILES. Where a name gives a salt, the structure may show the parent alone. Read-outs that look alike come from different tables or passages of the source.

Usually IC50 stands for the concentration needed to halve the response being measured. What is called inhibition is the change of the read-out against control, counted positive when it falls. What is called viability is a per cent measure of how many cells are alive, often set against a control. Read a high viability as less harm to the cells.

For `COc1c(C)c2c(c(O)c1C/C=C(\C)CCC(=O)O)C(=O)OC2` [MPA, mycophenolic acid], the half-maximal inhibitory concentration (IC50) in [1] (setting [13]) was determined as 370 nM; in data set [2] (setting [14]), 420 nM; in data set [3] (setting [15]), 970 nM.
Take `CCN(CC)CCCC(C)Nc1c2ccc(Cl)cc2nc2ccc(OC)cc12` (stereo not shown) [QDD, quinacrine dihydrochloride dihydrate]: the IC50 in data set [1] is 1280 nM; in data set [2], 1460 nM; in [3] it was 4660 nM. In data set [1], the “inhibition of LASV MG activity (rescreening)” value is listed as “at least 90%”. Further, the “cell viability (rescreening)” value in data set [4] (human) is recorded as over 70%. In addition, in [5] (human), the CC50 amounted to 28000 nM.
Regarding `CN(C)CCN1C(=O)c2cccc3cc(N)cc(c23)C1=O` [amonafide], the IC50 stood at 2890 nM in data set [1] (setting [13]), 2900 nM in data set [2] (setting [14]), 5750 nM in data set [3] (setting [15]) and 10000 nM in data set [6] (setting [16]). The compound further displayed a CC50 in data set [7] of at least 40000 nM.
As to `Cc1c2ccncc2c(C)c2c1[nH]c1ccccc12.Cl` [ellipticine hydrochloride], the IC50 amounted to 760 nM in data set [1] (read-out: IC50), 760 nM in data set [2] (read-out: IC50), 1730 nM in data set [3] (read-out: IC50) and 1500 nM in data set [6] (read-out: IC50). Further, the “inhibition of LCMV MG activity” value in data set [8] is 95%. Further, the CC50 in data set [5] is 32500 nM; in data set [9], at least 20000 nM.
Take `CC(=O)[C@]1(O)Cc2c(O)c3c(c(O)c2[C@@H](O[C@H]2C[C@H](N)[C@H](O)[C@H](C)O2)C1)C(=O)c1ccccc1C3=O` [idarubicin hydrochloride]: the IC50 in data set [1] (setting [13]) is 60 nM; in [2] (setting [14]), 120 nM; in [3] (setting [15]), 2560 nM; in data set [6] (setting [16]) it was 590 nM. The compound further returned a CC50 in data set [7] of 790 nM.
Regarding `NCCNc1ccc(NCCN)c2c1C(=O)c1ccncc1C2=O.O=C(O)/C=C\C(=O)O.O=C(O)/C=C\C(=O)O` [pixantrone maleate], the “inhibition of LASV MG activity (rescreening)” value in [1] is listed as “at least 90%”. Besides, the IC50 amounted to 1010 nM in data set [1] (read-out: IC50), 1810 nM in data set [2] (read-out: IC50), 3660 nM in data set [3] (read-out: IC50) and 4750 nM in data set [6] (read-out: IC50). The “cell viability (rescreening)” value in [4] was over 70%. Besides, the results for the CC50 in data set [5] and in data set [9] were 30300 nM and at least 40000 nM, respectively.
Regarding `Nc1ccc2cc3ccc(N)cc3nc2c1` [proflavine], the concentration for half-maximal inhibition (IC50) in data set [1] (setting [13]) is 1040 nM; in data set [2] (setting [14]), 1360 nM; in [3] (setting [15]), 2450 nM. For the same compound, in data set [1] (Mammarenavirus lassaense), the inhibition at 5 µM is at least 90%. Further, the viability at 5 µM in data set [10] is over 70%.
Taken in the same sequence, the figures for `CCN(CC)CCCC(C)Nc1c2ccc(Cl)cc2nc2ccc(OC)cc12` (stereo not shown) [quinacrine dihydrochloride] were 1670 nM, 1510 nM, 7330 nM, at least 90% and over 70%.
In the case of `NC(=O)c1ncn([C@@H]2O[C@H](CO)[C@@H](O)[C@H]2O)n1` [ribavirin, Ribavirin], the IC50 in [1] (setting [13]) worked out at 15400 nM; in data set [2] (setting [14]) it was 38200 nM; in data set [3] (setting [15]) it was 45400 nM; in data set [6] (setting [16]) it was 20200 nM. The CC50 in data set [10] (CC50) was at least 200000 nM; in data set [11], at least 200000 nM; in data set [12], at least 200000 nM; in data set [7], at least 100000 nM.
Consider `CN[C@H]1CN(c2ccc3c(=O)c(C(=O)O)cn(-c4nccs4)c3n2)C[C@@H]1OC` [voreloxin (SNS 595) hydrochloride], for which the IC50 in [1] (read-out: IC50) stood at 1820 nM; in data set [2] (read-out: IC50), 1150 nM; in [3] (read-out: IC50), 5230 nM; in data set [6] (read-out: IC50), 8500 nM. For the same compound, the CC50 in data set [5] was 13300 nM; in [9], at least 40000 nM.
